The values below come from ChEMBL document CHEMBL2074030, “The systemic exposure of an N-methyl-D-aspartate receptor antagonist is limited in mice by the P-glycoprotein and breast cancer resistance protein efflux transporters” (Drug Metab Dispos, 2004).

For this data set, the target named is ATP-dependent translocase ABCB1 (Mus musculus, UniProt P21447). Put plainly: TP_TRANSPORTER: transepithelial transport (apical to basal) in Mdr1a-expressing LLC-PK1 cells. Format: functional, cell-based. The note with it: pig.
Sequence of ATP-dependent translocase ABCB1 (P21447 whole entry): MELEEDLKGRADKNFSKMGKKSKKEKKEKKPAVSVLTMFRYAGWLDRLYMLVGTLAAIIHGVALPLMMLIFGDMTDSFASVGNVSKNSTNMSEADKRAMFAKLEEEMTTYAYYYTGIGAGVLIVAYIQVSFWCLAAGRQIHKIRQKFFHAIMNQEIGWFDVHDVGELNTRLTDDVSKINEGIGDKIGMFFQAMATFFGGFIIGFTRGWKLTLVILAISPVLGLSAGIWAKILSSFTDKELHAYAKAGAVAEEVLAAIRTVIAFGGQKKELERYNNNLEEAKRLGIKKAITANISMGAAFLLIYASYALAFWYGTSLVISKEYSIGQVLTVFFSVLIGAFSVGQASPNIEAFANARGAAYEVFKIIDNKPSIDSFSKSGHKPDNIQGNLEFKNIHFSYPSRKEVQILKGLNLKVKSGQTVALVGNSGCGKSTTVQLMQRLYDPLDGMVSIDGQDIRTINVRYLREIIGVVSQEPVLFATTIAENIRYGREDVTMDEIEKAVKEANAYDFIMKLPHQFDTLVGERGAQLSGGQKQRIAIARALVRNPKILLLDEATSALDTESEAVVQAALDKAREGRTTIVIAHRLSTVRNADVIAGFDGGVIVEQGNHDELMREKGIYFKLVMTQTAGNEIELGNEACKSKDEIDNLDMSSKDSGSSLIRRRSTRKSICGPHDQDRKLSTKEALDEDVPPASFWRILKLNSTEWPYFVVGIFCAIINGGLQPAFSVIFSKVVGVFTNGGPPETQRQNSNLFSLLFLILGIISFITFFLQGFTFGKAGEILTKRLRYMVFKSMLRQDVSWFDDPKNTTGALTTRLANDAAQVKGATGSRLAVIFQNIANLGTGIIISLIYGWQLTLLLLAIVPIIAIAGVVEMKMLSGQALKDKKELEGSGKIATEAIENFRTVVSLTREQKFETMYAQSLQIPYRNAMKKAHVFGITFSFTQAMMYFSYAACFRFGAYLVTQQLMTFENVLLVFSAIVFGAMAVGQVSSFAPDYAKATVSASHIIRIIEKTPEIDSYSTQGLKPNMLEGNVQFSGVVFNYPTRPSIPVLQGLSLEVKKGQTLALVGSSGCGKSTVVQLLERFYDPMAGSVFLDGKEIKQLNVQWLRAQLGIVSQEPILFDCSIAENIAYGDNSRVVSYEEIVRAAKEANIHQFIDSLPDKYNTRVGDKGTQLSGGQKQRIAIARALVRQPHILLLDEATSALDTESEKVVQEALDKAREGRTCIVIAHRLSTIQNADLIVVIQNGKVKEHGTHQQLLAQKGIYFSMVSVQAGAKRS

Turning to `O=C(O)c1[nH]c2cc(Cl)cc(Cl)c2c1/C=C1\CCN(c2ccccc2)C1=O`, the Activity entry is “is not a substrate [-]”.
The result for `CC(C)CN(C[C@@H](O)[C@H](Cc1ccccc1)NC(=O)O[C@H]1CCOC1)S(=O)(=O)c1ccc(N)cc1` [AMPRENAVIR] reads “substrate [+]”.
